These results are taken from PMC2834293 (Journal of medicinal chemistry, 2010).

In general, Ki refers to the equilibrium dissociation constant of an inhibitor or competing ligand from its target.

In data set [1] the target is recombinant soluble human furin (Homo sapiens, UniProt P09958). The data set is described as follows: Enzyme kinetics with furin. It counts as biochemical.
The test system of data set [2] is fowl plague virus hemagglutinin cleavage in MDCK cells. It counts as cell-based, influenza virus A/FPV/Rostock/34 (H7N1). The note with it: FPV-infected MDCK cells; data not shown.
In data set [3] the target is furin. The note with it: read-out: Ki furin; cited from earlier work.
The nature of data set [4]: Stability of stock solution in water. The note with it: room temperature, two weeks. It counts as physicochemical.
The test system of data set [5] is fowl plague virus (FPV, Rostock strain). The note with it: 25 μM inhibitor, up to 72 h.

Sequence of recombinant soluble human furin (P09958 108-715 limits assumed): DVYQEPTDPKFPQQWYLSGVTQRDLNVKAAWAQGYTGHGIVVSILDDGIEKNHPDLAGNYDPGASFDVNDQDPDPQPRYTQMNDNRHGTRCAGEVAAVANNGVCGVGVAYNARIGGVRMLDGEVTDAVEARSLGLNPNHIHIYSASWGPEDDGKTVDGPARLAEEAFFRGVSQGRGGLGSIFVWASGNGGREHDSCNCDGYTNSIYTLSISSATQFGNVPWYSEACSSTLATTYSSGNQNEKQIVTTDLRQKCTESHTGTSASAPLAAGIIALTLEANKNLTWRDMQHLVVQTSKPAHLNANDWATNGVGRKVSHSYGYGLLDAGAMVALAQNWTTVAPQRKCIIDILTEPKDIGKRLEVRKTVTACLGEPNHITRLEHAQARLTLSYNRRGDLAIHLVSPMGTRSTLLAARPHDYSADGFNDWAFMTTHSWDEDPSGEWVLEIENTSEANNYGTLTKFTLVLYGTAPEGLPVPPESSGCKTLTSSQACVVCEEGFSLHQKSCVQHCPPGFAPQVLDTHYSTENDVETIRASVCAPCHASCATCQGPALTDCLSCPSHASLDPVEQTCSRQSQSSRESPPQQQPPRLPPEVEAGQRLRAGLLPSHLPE

For `N=C(N)c1ccccc1` [benzamidine, reference compound], the inhibitory constant (Ki) in data set [1] stood at 750 µM.

For `CCCCCCCCCC(=O)N[C@@H](CCCNC(=N)N)C(=O)N[C@H](C(=O)N[C@@H](CCCNC(=N)N)C(=O)NCc1ccc(C(=N)N)cc1)C(C)C` [compound 16], in data set [2], the “activity in the cellular HA cleavage assay compared with inhibitor 15” value was “Very similar results”.

nona-D-arginine: the Ki in data set [3] was 0.0013 µM.

As for `CC(=O)N[C@@H](CCCNC(=N)N)C(=O)N[C@H](C(=O)N[C@@H](CCCNC(=N)N)C(=O)NCc1ccc(C(=N)N)cc1)C(C)C` [compound 17], in data set [2], the “activity in the cellular HA cleavage assay compared with inhibitor 15” value is “reduced activity”.

As for `N=C(N)c1ccc(CN)cc1` [compound 1, 4-amidinobenzylamine], the inhibition constant (Ki) in data set [1] is 1200 µM.

For `CC(C)[C@H](NC(=O)[C@H](CCCNC(=N)N)NC(=O)Cc1ccccc1)C(=O)N[C@@H](CCCNC(=N)N)C(=O)NCc1ccc(C(=N)N)cc1` [compound 15, Phac-Arg-Val-Arg-4-(amidomethyl)benzamidine], the “change in HPLC elution profile on storage” value in data set [4] is given as “could not detect any change”. Besides, the “viability of the cells in the presence of inhibitor” value in data set [5] (MDCK cells) is reported as “not noticeably influenced”. Also, the “delay of virus release versus untreated infected cultures” value in data set [5] (MOI 10^-5, MDCK cells) is on record as “about 24 h”.
